Measurements from patent publication US20220056019A1, “FARNESOID X RECEPTOR AGONISTS AND USES THEREOF” (Metacrine, Inc., priority 2018, published 2022).

Target: T1, hFXR (Homo sapiens, UniProt Q96RI1)
T1 construct: expressed in transfected cells; host or cells: CV-1 cells
T1 sequence (Q96RI1 1-486): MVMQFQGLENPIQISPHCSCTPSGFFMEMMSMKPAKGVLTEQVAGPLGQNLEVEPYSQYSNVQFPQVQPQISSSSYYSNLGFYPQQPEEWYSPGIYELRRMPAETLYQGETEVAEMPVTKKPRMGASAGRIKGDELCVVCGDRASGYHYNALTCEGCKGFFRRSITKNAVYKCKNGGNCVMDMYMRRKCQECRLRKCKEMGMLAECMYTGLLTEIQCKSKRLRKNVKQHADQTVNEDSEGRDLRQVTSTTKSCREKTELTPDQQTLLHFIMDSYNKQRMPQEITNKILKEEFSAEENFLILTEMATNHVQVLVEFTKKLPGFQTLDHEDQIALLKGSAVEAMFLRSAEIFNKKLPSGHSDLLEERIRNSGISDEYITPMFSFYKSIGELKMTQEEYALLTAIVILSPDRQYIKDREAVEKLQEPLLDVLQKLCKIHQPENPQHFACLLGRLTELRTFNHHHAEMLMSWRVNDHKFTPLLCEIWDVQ
T1 sequence (P19793 1-462 partner): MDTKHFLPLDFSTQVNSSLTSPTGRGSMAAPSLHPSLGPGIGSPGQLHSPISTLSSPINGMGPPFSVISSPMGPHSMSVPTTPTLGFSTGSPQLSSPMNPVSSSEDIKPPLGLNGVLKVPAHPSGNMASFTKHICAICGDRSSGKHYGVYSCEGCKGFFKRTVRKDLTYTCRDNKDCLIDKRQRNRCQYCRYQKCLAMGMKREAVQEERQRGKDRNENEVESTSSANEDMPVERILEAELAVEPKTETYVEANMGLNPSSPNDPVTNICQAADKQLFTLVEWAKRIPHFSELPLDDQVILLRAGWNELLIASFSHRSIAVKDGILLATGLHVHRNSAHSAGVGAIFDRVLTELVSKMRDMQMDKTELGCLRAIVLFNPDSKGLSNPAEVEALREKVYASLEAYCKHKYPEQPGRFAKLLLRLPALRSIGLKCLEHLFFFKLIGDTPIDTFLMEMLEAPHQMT
Test: In Vitro FXR Assay (TK): TK-ECRE-luc reporter in transfected CV-1 cells
Type: cell-based
Settings: 18 hrs incubation, luminescence
Procedure, shortened: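 Luciferase read-out from lysed CV-1 cells carrying transfected hFXR, hRXR, TK-ECRE-luc and pCMX-YFP. Test compounds, DMSO serial dilutions, were incubated with the cells for 18 h before lysis. Cells grew in charcoal-stripped serum medium.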

| SMILES | EC50 |
| --- | --- |
| COc1ccc(C23CCC(CN(c4cc(-c5cnn(C(C)C)c5)ccn4)C(=O)[C@H]4CC[C@H](OC(=O)N5CC(C(C)(C)O)C5)CC4)(CC2)CC3)cc1C [Compound 4.42, 4-((4-(1-Isopropyl-1H-pyrazol-4-yl)pyridin-2-yl) ((4-(4-methoxy-3-methylphenyl)bicyclo [2.2.2]octan-1-yl)methyl)carbamoyl)cyclohexyl trans-3-(2-hydroxypropan-2-yl)azetidine-1-carboxylate] | ≤ 50 nM |
| COc1ccc([C@H]2CC[C@H](CN(c3cc(-c4coc(C(C)C)n4)ccn3)C(=O)[C@H]3CC[C@H](OC(=O)NC4COC4)CC3)CC2)cc1C [Compound 2.52, trans-4-((4-(2-Isopropyloxazol-4-yl)pyridin-2-yl)(((trans)-4-(4-methoxy-3-methylphenyl)cyclohexyl)methyl)carbamoyl)cyclohexyl oxetan-3-ylcarbamate] | ≤ 50 nM |
| COc1ccc(C23CCC(CN(c4cc(-c5cnc(C(C)C)o5)ccn4)C(=O)[C@H]4CC[C@H](OC(=O)N5CC(O)C5)CC4)(CC2)CC3)cc1C [Compound 4.25, 4-((4-(2-Isopropyloxazol-5-yl)pyridin-2-yl)((4-(4-methoxy-3-methylphenyl)bicyclo[2.2.2]octan-1-yl)methyl)carbamoyl) cyclohexyl 3-hydroxyazetidine-trans-1-carboxylate] | ≤ 50 nM |
| COc1ccc(C23CCC(CN(c4cccc(-n5cnc(C6CC6)c5)c4)C(=O)[C@H]4CC[C@H](OC(=O)N5CC(O)C5)CC4)(CC2)CC3)cc1C [Compound 4.58, 4-((3-(4-Cyclopropyl-1H-imidazol-1-yl)phenyl) ((4-(4-methoxy-3-methylphenyl)bicyclo [2.2.2]octan-1-yl)methyl)carbamoyl)cyclohexyl trans-3-hydroxyazetidine-1-carboxylate] | ≤ 50 nM |
| COCCOC(=O)N[C@H]1CC[C@H](C(=O)N(CC23CCC(c4ccc(OC)c(C)c4)(CC2)CC3)c2cc(-c3cnn(C(C)C)c3)ccn2)CC1 [Compound 7.01, (trans)-2-Methoxyethyl (4-((4-(1-isopropyl-1H-pyrazol-4-yl)pyridin-2-yl)((4-(4-methoxy-3-methylphenyl)bicyclo[2.2.2]octan-1-yl)methyl)carbamoyl)cyclohexyl) carbamate] | ≤ 50 nM |
| COc1ccc([C@H]2CC[C@H](CN(c3cccc(-c4coc(C5CC5)n4)c3)C(=O)[C@H]3CC[C@H](C(C)(C)O)CC3)CC2)nc1C [Compound 19, trans-N-(3-(2-Cyclopropyloxazol-4-yl)phenyl)-4-(2-hydroxypropan-2-yl)-N-((trans-4-(5-methoxy-6-methylpyridin-2-yl)cyclohexyl)methyl)cyclohexanecar-boxamide] | ≤ 50 nM |
| COc1ccc(C23CCC(CN(c4nccc(-c5cnn(C(C)C)c5)n4)C(=O)[C@H]4CC[C@H](OC(=O)N5CC(O)C5)CC4)(CC2)CC3)cc1C [Compound 4.60, 4-((4-(1-Isopropyl-1H-pyrazol-4-yl)pyrimidin-2-yl)((4-(4-methoxy-3-methylphenyl)bicyclo [2.2.2]octan-1-yl)methyl)carbamoyl)(trans-cyclohexyl) 3-hydroxyazetidine-1-carboxylate] | ≤ 50 nM |
| COc1ncc([C@H]2CC[C@H](CN(c3cc(-c4coc(C5CC5)n4)ccn3)C(=O)[C@H]3CC[C@H](OC(=O)N4CCN(C)CC4)CC3)CC2)cc1Cl [Compound 1.07, trans-4-((((trans)-4-(5-Chloro-6-methoxypyridin-3-yl)cyclohexyl)methyl)(4-(2-cyclopropyloxazol-4-yl)pyridin-2-yl)carbamoyl)cyclohexyl 4-methylpiperazine-1-carboxylate] | ≤ 50 nM |
| COc1c(C)cc(C23CCC(CN(c4cc(-c5cnn(C(C)C)c5)ccn4)C(=O)[C@H]4CC[C@H](OC(=O)N5CC(O)C5)CC4)(CC2)CC3)cc1F [Compound 26.05, 4-(((4-(3-Fluoro-4-methoxy-5-methylphenyl)bicyclo[2.2.2]octan-1-yl)methyl)(4-(1-isopropyl-1H-pyrazol-4-yl)pyridin-2-yl)carbamoyl)cyclohexyl trans-3-hydroxyazetidine-1-carboxylate] | ≤ 50 nM |
| COc1ccc([C@H]2CC[C@H](CN(c3cccc(-c4coc(C5CC5)n4)c3)C(=O)[C@H]3CC[C@H](CO)CC3)CC2)nc1C [Compound 20, trans-N-(3-(2-Cyclopropyloxazol-4-yl)phenyl)-4-(hydroxymethyl)-N-((trans-4-(5-methoxy-6-methylpyridin-2-yl)cyclohexyl)methyl)cyclohexanecar-boxamide] | ≤ 50 nM |
| COc1ccc(C23CCC(CN(c4cc(-c5cnn(C(C)C)c5)c(Cl)cn4)C(=O)[C@H]4CC[C@H](OC(=O)N5CC(O)C5)CC4)(CC2)CC3)cc1C [Compound 26.01, 4-((5-Chloro-4-(1-isopropyl-1H-pyrazol-4-yl)pyridin-2-yl)((4-(4-methoxy-3-methylphenyl)bicyclo[2.2.2]octan-1-yl)methyl)carbamoyl)(trans-cyclohexyl) 3-hydroxyazetidine-1-carboxylate] | ≤ 50 nM |
| COc1ccc([C@H]2CC[C@H](CN(c3cc(-c4cnn(C(C)C)c4)ccn3)C(=O)[C@H]3CC[C@H](CO)CC3)CC2)cc1C [Compound 17, (trans)-4-(Hydroxymethyl)-N-(4-(1-isopropyl-1H-pyrazol-4-yl)pyridin-2-yl)-N-(((trans)-4-(4-methoxy-3-methylphenyl)cyclohexyl)methyl)cy-clohexanecarboxamide] | ≤ 50 nM |
| COc1ccc(C23CCC(CN(c4cc(-n5cnc(C6CC6)n5)ccn4)C(=O)[C@H]4CC[C@H](OC(=O)N5CC(O)C5)CC4)(CC2)CC3)cc1C [Compound 4.17, 4-((4-(3-Cyclopropyl-1H-t1,2,4-riazol-1-yl)pyridin-2-yl)((4-(4-methoxy-3-methylphenyl)bicyclo [2.2.2]octan-1-yl)methyl)carbamoyl)cyclohexyl 3-hydroxyazetidine-trans-1-carboxylate] | ≤ 50 nM |
| COc1ccc(C23CCC(CN(c4cc(-c5cnn(C(C)C)c5)ccn4)C(=O)[C@H]4CC[C@H](OC(=O)N5CC(OC)C5)CC4)(CC2)CC3)cc1C [Compound 4.47, 4-((4-(1-Isopropyl-1H-pyrazol-4-yl)pyridin-2-yl) ((4-(4-methoxy-3-methylphenyl)bicyclo [2.2.2]octan-1-yl)methyl)carbamoyl)(trans-cyclohexyl) 3-methoxyazetidine-1-carboxylate] | ≤ 50 nM |
| COCC(=O)N[C@H]1CC[C@H](C(=O)N(CC23CCC(c4ccc(OC)c(C)c4)(CC2)CC3)c2cc(-c3coc(C4CC4)n3)ccn2)CC1 [Compound 9.10, (trans)-N-(4-(2-Cyclopropyloxazol-4-yl)pyridin-2-yl)-N-((4-(4-methoxy-3-methylphenyl)bicyclo[2.2.2]octan-1-yl)methyl)-4-(2-methoxyacetamido)cyclohexanecar-boxamide] | ≤ 50 nM |
| COc1ccc([C@H]2CC[C@H](CN(c3cc(-c4cnc(C5CC5)s4)ccn3)C(=O)[C@H]3CC[C@H](OC(=O)NC(C)C)CC3)CC2)cc1C [Compound 2.45, trans-4-((4-(2-Cyclopropylthiazol-5-yl)pyridin-2-yl)(((trans)-4-(4-methoxy-3-methylphenyl)cyclohexyl)methyl)carbamoyl)cyclohexyl isopropylcarbamate] | ≤ 50 nM |
| COc1ccc([C@H]2CC[C@H](CN(c3cc(-c4cnn(C(C)C)c4)ccn3)C(=O)[C@H]3CC[C@H](OC(=O)NCC(C)(C)CO)CC3)CC2)cc1C [Compound 2.20, trans-4-((4-(1-Isopropyl-1H-pyrazol-4-yl)pyridin-2-yl) ((trans-4-(4-methoxy-3-methylphenyl)cyclohexyl)methyl)carbamoyl) cyclohexyl(3-hydroxy-2,2-dimethylpropyl)carbamate] | ≤ 50 nM |
| COc1ccc(C23CCC(CN(c4cc(-c5cnn(C(C)C)c5)ccn4)C(=O)[C@H]4CC[C@H](NC(=O)COCCCO)CC4)(CC2)CC3)cc1C [Compound 13.02, trans-4-(2-(3 Hydroxypropoxy)acetamido)-N-(4-(1-isopropyl-1H-pyrazol-4-yl)pyridin-2-yl)-N-((4-(4-methoxy-3-methylphenyl)bicyclo[2.2.2]octan-1-yl)methyl)cyclohexanecarboxamide] | ≤ 50 nM |
| COc1ccc(C23CCC(CN(c4cc(-c5cnn(C(C)C)c5)ccn4)C(=O)[C@H]4CC[C@H](OC(=O)NC(C)(C)CO)CC4)(CC2)CC3)cc1C [Compound 4.46, 4-((4-(1-Isopropyl-1H-pyrazol-4-yl)pyridin-2-yl) ((4-(4-methoxy-3-methylphenyl)bicyclo [2.2.2]octan-1-yl)methyl)carbamoyl)cyclohexyl trans-(1-hydroxy-2-methylpropan-2-yl) carbamate] | ≤ 50 nM |
